Source: patent US8017775B2, “1-2-dihydroquinoline derivative having glucocorticoid receptor binding activity” (Santen Pharmaceutical Co., Ltd., priority 2005, dated 2011)

Target: T1, Recombinant human GR (Homo sapiens, UniProt P04150)
T1 construct: purchased Invitrogen P2816
T1 sequence (P04150 1-777): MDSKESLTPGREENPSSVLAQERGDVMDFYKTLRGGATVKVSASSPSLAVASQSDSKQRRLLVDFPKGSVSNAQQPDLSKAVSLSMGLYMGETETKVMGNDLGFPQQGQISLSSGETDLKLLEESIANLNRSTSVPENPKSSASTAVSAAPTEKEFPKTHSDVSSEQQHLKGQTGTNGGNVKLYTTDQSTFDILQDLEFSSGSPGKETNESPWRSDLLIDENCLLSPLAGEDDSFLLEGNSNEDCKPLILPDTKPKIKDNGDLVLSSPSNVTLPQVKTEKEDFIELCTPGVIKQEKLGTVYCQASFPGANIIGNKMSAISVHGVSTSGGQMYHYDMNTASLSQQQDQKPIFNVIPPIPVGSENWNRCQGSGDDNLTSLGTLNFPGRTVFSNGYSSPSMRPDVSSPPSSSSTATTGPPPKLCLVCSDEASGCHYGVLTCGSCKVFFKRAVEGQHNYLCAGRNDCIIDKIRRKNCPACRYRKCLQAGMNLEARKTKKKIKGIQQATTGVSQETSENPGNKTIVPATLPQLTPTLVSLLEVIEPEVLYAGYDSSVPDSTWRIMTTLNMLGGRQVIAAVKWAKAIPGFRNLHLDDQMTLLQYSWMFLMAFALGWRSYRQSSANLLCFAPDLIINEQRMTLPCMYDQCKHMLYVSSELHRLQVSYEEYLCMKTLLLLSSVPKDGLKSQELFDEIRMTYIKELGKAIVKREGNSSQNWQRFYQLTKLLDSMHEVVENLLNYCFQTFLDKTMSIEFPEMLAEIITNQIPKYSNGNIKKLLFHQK
Assay: GR competitor assay by fluorescence polarization (GR binding ratio)
Settings: positive control 2 mM dexamethasone, a GR binding ratio of 100% or more is indicated by 100%

Row | Compound | GR Binding ratio (%)
1 | COc1ccc(C(F)(F)F)cc1-c1ccc2c(c1COc1cc(F)ccc1C)C(C)=CC(C)(C)N2 [Compound 14-15, 5-(5-Fluoro-2-methylphenoxymethyl)-6-(2-methoxy-5-trifluoromethylphenyl)-2,2,4-trimethyl-1,2-dihydroquinoline] | 99%
2 | C=CCc1ccccc1OCc1c(-c2cc(C)ccc2OC)ccc2c1C(C)=CC(C)(C)N2 [Compound 14-21, 5-(2-Allylphenoxymethyl)-6-(2-methoxy-5-methylphenyl)-2,2,4-trimethyl-1,2-dihydroquinoline] | 99%
3 | COc1ccc(F)cc1-c1ccc2c(c1COc1cc(C)ccc1C)C(C)=CC(C)(C)N2 [Compound 14-40, 5-(2,5-Dimethylphenoxymethyl)-6-(5-fluoro-2-methoxyphenyl)-2,2,4-trimethyl-1,2-dihydroquinoline] | ≥ 100%
4 | COc1ccc(F)cc1-c1ccc2c(c1COc1cc(Cl)ccc1C)C(C)=CC(C)(C)N2 [Compound 14-41, 5-(5-Chloro-2-methylphenoxymethyl)-6-(5-fluoro-2-methoxyphenyl)-2,2,4-trimethyl-1,2-dihydroquinoline] | ≥ 100%
5 | C=CCc1ccccc1OCc1c(-c2cc(F)ccc2OC)ccc2c1C(C)=CC(C)(C)N2 [Compound 14-45, 5-(2-Allylphenoxymethyl)-6-(5-fluoro-2-methoxyphenyl)-2,2,4-trimethyl-1,2-dihydroquinoline] | ≥ 100%
6 | C=CCc1ccccc1OCc1c(-c2cc(Cl)ccc2OC)ccc2c1C(C)=CC(C)(C)N2 [Compound 14-47, 5-(2-Allylphenoxymethyl)-6-(5-chloro-2-methoxyphenyl)-2,2,4-trimethyl-1,2-dihydroquinoline] | ≥ 100%
7 | COc1ccc([N+](=O)[O-])cc1-c1ccc2c(c1COc1cc(F)ccc1C)C(C)=CC(C)(C)N2 [Compound 14-48, 5-(5-Fluoro-2-methylphenoxymethyl)-6-(2-methoxy-5-nitrophenyl)-2,2,4-trimethyl-1,2-dihydroquinoline] | ≥ 100%

The next lines start with the values.

Row | GR Binding ratio (%) | Compound
8 | ≥ 100% | COc1ccc(Cl)cc1-c1ccc2c(c1COc1cc(F)ccc1C)C(C)=CC(C)(C)N2 [Compound 14-13, 6-(5-Chloro-2-methoxyphenyl)-5-(5-fluoro-2-methylphenoxymethyl)-2,2,4-trimethyl-1,2-dihydroquinoline]
9 | ≥ 100% | COc1ccc(F)cc1-c1ccc2c(c1COc1cc(F)ccc1C)C(C)=CC(C)(C)N2 [Compound 14-43, 6-(5-Fluoro-2-methoxyphenyl)-5-(5-fluoro-2-methylphenoxymethyl)-2,2,4-trimethyl-1,2-dihydroquinoline]
10 | 76% | COc1ccc(OCc2ccccc2)cc1-c1ccc2c(c1COc1cc(F)ccc1C)C(C)=CC(C)(C)N2 [Compound 15-2, 6-(5-Benzyloxy-2-methoxyphenyl)-5-(5-fluoro-2-methylphenoxymethyl)-2,2,4-trimethyl-1,2-dihydroquinoline]
11 | ≥ 100% | C=CCOc1ccc(-c2ccc3c(c2COc2cc(F)ccc2C)C(C)=CC(C)(C)N3)c(OC)c1 [Compound 15-7, 6-(4-Allyloxy-2-methoxyphenyl)-5-(5-fluoro-2-methylphenoxymethyl)-2,2,4-trimethyl-1,2-dihydroquinoline]
